In one assay the test system is adult S. mansoni. Briefly: Movement assay of cultured adult S. mansoni (Example 2). It is filed as cell-based. To be noted: Schistosoma mansoni; FIG. 19B; read-out: EC50, stimulation of adult schistosome movement. The source says:
(§1) Female Swiss Webster mice infected with S. mansoni cerceria (NMRI strain) were sacrificed 49 days post infection by CO2 euthanasia. Adult schistosomes were recovered by perfusion with a solution of 0.85% sodium chloride+0.75% sodium citrate and dissection of the mesenteric vasculature. Harvested schistosomes were washed in RPMI 1640 Medium with GlutaMAX+5% heat inactivated FBS (Gibco) and Penicillin-Streptomycin (final concentration 100 units/mL, ThermoFisher cat #15140122).
For movement assays, worms were cultured 37° C./5% CO2 in vented 100×25 mm petri dishes (ThermoFisher cat #4031) containing 50 mL of media and used between 1-3 days after harvesting. Prior to assessing worm movement, individuals were transferred to a six well dish (4-5 individuals per well) containing 3 mL drug solution in RPMI 1640 supplemented with HEPES (25 mM) and MS (5%). Videos were recorded using a Zeiss Discovery v20 stereomicroscope and a QiCAM 12-bit cooled color CCD camera controlled by metamorph imaging software (version 7.8.1.0). 1 minute recordings were acquired at 4 frames per second, saved as a .TIFF stack, and movement was analyzed using ImageJ software as described in (PMID: 27187180, PMID: 27397763).

The target in assay [1] is Sm.5HTR (Schistosoma mansoni, UniProt A0A173FEI8). Put plainly: cell-based. An outline of the steps: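 HEK293 cells stably co-expressing Sm.5HTR and the GloSensor-22F cAMP sensor, plated at 2.5×10^4/well the day before or assayed in suspension at 5000/well in 384-well plates. Assay buffer: HBSS, 20 mM HEPES pH 7.4, 0.1% BSA, 1 mg/mL D-luciferin. Equilibrated 1 h at room temperature, then IBMX 200 μM for 30 min before compound.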
Chain of Sm.5HTR (Schistosoma mansoni, UniProt A0A173FEI8) (A0A173FEI8 entry or part of it): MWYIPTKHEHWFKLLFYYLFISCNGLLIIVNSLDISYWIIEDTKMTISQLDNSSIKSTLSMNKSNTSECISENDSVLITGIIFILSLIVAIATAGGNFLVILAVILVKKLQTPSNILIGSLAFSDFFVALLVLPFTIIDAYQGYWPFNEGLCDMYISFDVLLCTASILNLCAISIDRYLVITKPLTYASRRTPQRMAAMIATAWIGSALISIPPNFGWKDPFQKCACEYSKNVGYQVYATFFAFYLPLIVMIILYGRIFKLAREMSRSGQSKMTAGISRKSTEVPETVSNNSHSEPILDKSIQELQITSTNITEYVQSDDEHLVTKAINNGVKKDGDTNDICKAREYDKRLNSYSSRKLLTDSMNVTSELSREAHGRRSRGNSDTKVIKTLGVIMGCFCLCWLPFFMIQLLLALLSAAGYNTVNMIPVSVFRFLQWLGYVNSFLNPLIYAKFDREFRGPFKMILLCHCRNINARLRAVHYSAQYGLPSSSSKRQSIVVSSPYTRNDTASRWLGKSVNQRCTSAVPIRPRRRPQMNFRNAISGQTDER

In assay [2] the target is Sm.5HTR (Schistosoma mansoni, UniProt G4V5G4). The class given is cell-based. The settings on record: FIG. 10A.
Chain of Sm.5HTR (Schistosoma mansoni, UniProt G4V5G4) (G4V5G4 entry or part of it): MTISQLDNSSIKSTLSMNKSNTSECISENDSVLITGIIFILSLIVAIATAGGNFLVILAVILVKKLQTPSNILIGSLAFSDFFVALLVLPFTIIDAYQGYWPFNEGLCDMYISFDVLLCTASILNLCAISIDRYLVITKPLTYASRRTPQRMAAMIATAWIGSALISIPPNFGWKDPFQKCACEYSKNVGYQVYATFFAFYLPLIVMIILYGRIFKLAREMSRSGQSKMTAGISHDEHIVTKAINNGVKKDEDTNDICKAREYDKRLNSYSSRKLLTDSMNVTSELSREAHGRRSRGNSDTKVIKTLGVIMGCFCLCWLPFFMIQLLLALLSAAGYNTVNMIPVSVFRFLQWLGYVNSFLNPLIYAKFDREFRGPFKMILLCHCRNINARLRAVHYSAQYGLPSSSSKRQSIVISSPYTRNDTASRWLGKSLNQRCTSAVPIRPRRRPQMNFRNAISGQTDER
The next assay has as its system adult schistosomes. Put plainly: Egg laying assay, adult schistosome pairs in vitro. It is filed as cell-based, Schistosoma mansoni.
Text: as §1
For egg laying assays, adult schistosomes were transferred to 24 well plates the day after harvesting from mice (5 worm pairs in 2 mL media per well). Eggs were counted under a stereomicroscope daily, after which worms were transferred to a new well with fresh drug containing media. Egg counts were recorded for five days, and data processed as the mean number of eggs laid per worm pair/day. Measurements of egg dimensions were quantified using the “analyze>measure” function in ImageJ to record the length and width of individual eggs.

A word on the EC50: it is the concentration that produces a half-maximal response. The Emax is the maximal effect, on the per cent scale that the assay sets. As to `CN1C[C@H](C(=O)N[C@]2(C)O[C@@]3(O)[C@@H]4CCCN4C(=O)[C@H](Cc4ccccc4)N3C2=O)C=C2c3cccc4[nH]cc(c34)C[C@H]21` [ergotamine], the EC50 with adult S. mansoni is 10 ± 3 nM; on Sm.5HTR [1], 43 ± 13 nM; at Sm.5HTR [2] (read-out: EC50, agonist activity at Sm.5HTR), 232 nM. Besides, the Emax at Sm.5HTR [1] (HEK293, read-out: Sm.5HTR Emax) is 95 ± 5%. For the same compound, on Sm.5HTR [2], the “agonist efficacy at Sm.5HTR, in words” value is listed as “partial agonism”. Moreover, the “reduction in size of eggs” value in the assay with adult schistosomes (FIGS. 19H&I, ergotamine 1 μM) is reported as 43%. Besides, in the assay on adult schistosomes (serotonin 100 μM, forskolin 100 μM, LSD 10 μM, nuciferine 10 μM, ergotamine 5 μM (FIG. 19F), eggs per worm pair/day over five days), the “decrease of egg laying” value was found to be 54%.

These data come from patent publication US10426772B2, “Use of ergot alkaloids as an anthelmintic agent” (priority 2016, dated 2019).
